These results are taken from PubChem BioAssay AID1549 (Sanford-Burnham Center for Chemical Genomics, 2009).

Active and inactive are the calls of the source. The rule behind the calls is not given here.

For the assay, the target named is Influenza A virus M2 proton channel (A/TW/4845/1999 H1N1). The assay is described as follows: NMR binding screen, influenza A virus M2 proton channel, Kd (AID 1549). As to conditions: M2 protein.
`Nc1nnc(-c2ccncc2)s1`: the Kd was > 4 mM (inactive).
As to `COc1ccc(C2(C)CC(=O)NC2=O)cc1` (configuration not stated), the Kd was > 4 mM (inactive).
In the case of `CC(=O)Nc1nc2c(s1)C(=O)NCCC2` it was > 4 mM (inactive); in that of `COC(=O)NCc1cc2cc(Cl)ccc2[nH]1`, > 4 mM (inactive); in that of `CC(=O)Nn1cc2c(=O)n(C)c(=O)n(C)c2c1`, > 4 mM (inactive).
Next, `CN(C)CC(O)C1CCOC(C)(C)C1` (configuration not stated): > 4 mM (inactive); `C/C(=N\NC(N)=S)C(=O)O`: > 4 mM (inactive).
As for `Cn1ccnc1C(O)c1ccccc1` (configuration not stated), the Kd is > 4 mM (inactive).
`O=[n+]1c2c(n([O-])c3ccccc31)CCCC2`: the Kd is > 4 mM (inactive).
In the case of `CCSc1nnc2[nH]c(=O)cc(C)n12` it was > 4 mM (inactive); in that of `COCC(=O)Nc1cccc(Br)c1`, > 4 mM (inactive).
Take `CCn1c(=O)cc(N2CCC3(CC2)OCCO3)[nH]c1=O`: the Kd was > 4 mM (inactive).
Next, `O=c1[nH]c(N2CCOCC2)nc2ccccc12`: > 4 mM (inactive); `O=C(O)CNC(=O)c1ccc([N+](=O)[O-])cc1`: > 4 mM (inactive); `CCc1c(C)n([O-])c2c([n+]1=O)CCC2`: > 4 mM (inactive).
In the case of `CC(=O)Nc1ccc(CN2CCOCC2)cc1`, the Kd is > 4 mM (inactive).
For the molecule `Cc1ccc2c(c1)CCCN2C(=O)c1c(C)noc1C`, the Kd is > 4 mM (inactive).
In the case of `C=CCc1ccc(O)c(OC)c1` it was > 4 mM (inactive); in that of `NC(=O)CSc1nc2ccccc2[nH]1`, > 4 mM (inactive).
As to `O=C(O)c1coc2c1C(=O)CCC2`, the Kd is > 4 mM (inactive).
For `Nc1oncc1-c1ccccn1`, the Kd is > 4 mM (inactive).
Next, `O=C1CN2C(=N1)N(Cc1ccccc1)c1ccccc12`: > 4 mM (inactive); `CC(C)=NNC(=O)C(=O)NC(C)(C)C`: > 4 mM (inactive).
For `CC(=O)Nc1ccc(NC(=O)c2ccncc2)cc1`, the Kd is > 4 mM (inactive).
In the case of `OC(c1ccccc1)c1ccccn1` (configuration not stated) it was > 4 mM (inactive); in that of `C#CCCCCCCCCCCCC(=O)CC(O)COC(C)=O` (configuration not stated), > 4 mM (inactive); in that of `COc1ccc2c(c1)OCc1c-2oc2cc(OC)ccc12`, > 4 mM (inactive).
Turning to `NC1=NC(=O)/C(=C/c2ccccc2[N+](=O)[O-])S1`, the Kd was > 4 mM (inactive).
Next, `Cc1c(C(=O)Nn2cnnc2)oc2ccccc12`: > 4 mM (inactive); `Cc1cc(C(=O)Nn2cnnc2)cs1`: > 4 mM (inactive); `CNC(=O)c1cc2cccc(OC)c2oc1=O`: > 4 mM (inactive).
With `O=C1NC(=S)N/C1=C/c1ccc(O)c(Cl)c1`, the Kd was > 4 mM (inactive).
Take `NC(=O)Cc1nc(-c2ccccc2)cs1`: the Kd is > 4 mM (inactive).
Next, `CC(=O)Nc1ccc2c(C)cc(=O)[nH]c2c1`: > 4 mM (inactive); `CC(=O)c1sc2nc(N)nn2c1C`: > 4 mM (inactive).
In the case of `O=C1CCC(C(=O)NCc2cccnc2)N1` (configuration not stated) it was > 4 mM (inactive); in that of `CC1(C)O[C@H]2[C@H](O)C[C@](O)(C(N)=O)C[C@H]2O1`, > 4 mM (inactive).
Take `COc1ccc(Cl)cc1-c1nc(-c2ccncc2)no1`: the Kd was > 4 mM (inactive).
In the case of `CC(C)=NNC(=O)c1ccccc1` it was > 4 mM (inactive); in that of `CC1(c2ccncc2)NC(=O)NC1=O` (configuration not stated), > 4 mM (inactive); in that of `Cn1cnc2nc3n(c2c1=O)CCC3`, > 4 mM (inactive).
Next, `Nc1[nH]c(=S)ncc1S(=O)(=O)c1ccccc1`: > 4 mM (inactive); `Nc1nc(SCC(=O)c2ccc([N+](=O)[O-])cc2)n[nH]1`: > 4 mM (inactive).
In the case of `Cc1noc(C)c1C(=O)NCc1cccs1` it was > 4 mM (inactive).
With `O=C(O)CNC(=O)c1ccccc1Cl`, the Kd is > 4 mM (inactive).
Take `CCNC(=S)N1CCC(C(N)=O)CC1`: the Kd was > 4 mM (inactive).
In the case of `O=C(Nc1ccc2c(c1)OCO2)c1c(F)cccc1F` it was > 4 mM (inactive).
Next, `OCCCc1nc2ccccc2[nH]1`: > 4 mM (inactive); `Cc1ccc2c(C)c(C(=O)Nc3nnc(C)s3)oc2c1`: > 4 mM (inactive).
In the case of `O=C(Cc1c(F)cccc1Cl)Nc1ccncc1` it was > 4 mM (inactive).
With `O=S1(=O)CCC(NC(=S)N2CCCCC2)C1` (configuration not stated), the Kd is > 4 mM (inactive).
In the case of `COc1ccc2c(c1)O[C@@H]1COc3cc(OC)c(OC)cc3[C@@H]1C2=O` it was > 4 mM (inactive); in that of `O=C1NCCCC1C(=O)N/N=C/c1ccccc1` (configuration not stated), > 4 mM (inactive); in that of `CCOC(=O)c1cnc2sccn2c1=O`, > 4 mM (inactive).
In the case of `O=C(O)C12CC3CC(CC(O)(C3)C1)C2` it was > 4 mM (inactive).
Next, `NCc1ccc(-c2cccs2)cc1`: > 4 mM (inactive); `S=C(CN1CCCC1=S)N1CCOCC1`: > 4 mM (inactive).
On to `COC(=O)CSc1n[nH]c(N)n1`, for which the Kd is > 4 mM (inactive).
For `CNC(=O)c1cc(C)c(-c2ccccc2)s1`, the Kd is > 4 mM (inactive).
Next, `N#Cc1cccc(Cn2nnc(-c3ccccc3)n2)c1`: > 4 mM (inactive); `N#Cc1c[nH]n2c(=O)cc(Cc3ccccc3)nc12`: > 4 mM (inactive).
Next, `O=C(c1cccc(-n2cnnn2)c1)N1CCOCC1`: > 4 mM (inactive); `CC[C@@]1(O)C(=O)OCc2c1cc1n(c2=O)Cc2cc3ccccc3nc2-1`: > 4 mM (inactive); `Nc1cc(=O)[nH]c(=O)n1-c1ccccc1`: > 4 mM (inactive).
Take `COC(=O)c1cc(-c2c[nH]c3ccccc23)n[nH]1`: the Kd was > 4 mM (inactive).
Next, `CC(=O)n1c(N)nc2ccccc21`: > 4 mM (inactive); `Nc1ccc(S(=O)(=O)N2CCCCC2)cc1`: > 4 mM (inactive).
Next, `Cc1cc(Oc2ccccc2)nc(N)n1`: > 4 mM (inactive); `C=C1C2CC[C@@]3(C)[C@H](c4ccoc4)OC(=O)C[C@]13O[C@H]1CC(=O)C(C)(C)[C@H](C(OC(C)=O)C(=O)OC)[C@@]21C` (some centres not stated): > 4 mM (inactive); `Cc1nnc(NCCCO)[nH]c1=O`: > 4 mM (inactive).
Turning to `O=C(O)c1onc2ccccc12`, the Kd was > 4 mM (inactive).
In the case of `Cc1nc(-c2ccc(C(=O)N3CCOCC3)cc2)cs1` it was > 4 mM (inactive); in that of `Cc1ccccc1NC(=O)CC1NCCNC1=O` (configuration not stated), > 4 mM (inactive); in that of `NCc1ccc2c(c1)OCCCO2`, > 4 mM (inactive).
In the case of `CC(=O)Oc1cc2c(c(C)c1OC(C)=O)CC=C1[C@@]2(C)CC[C@@]2(C)C3C[C@](C)(C(=O)O)CC[C@]3(C)CC[C@]12C` (some centres not stated) it was > 4 mM (inactive).
As for `O=C(Nc1ccccc1)Nc1ccccc1`, the Kd is > 4 mM (inactive).
In the case of `Nc1ccccc1OC(F)(F)F` it was > 4 mM (inactive).
